# In PubChem BioAssay (NCI):
#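 Exposure lasted 48 hours, with cells grown in 96-well plates and compounds tested at five concentrations. The concentration for 50% growth inhibition is given as GI50. TGI: concentration producing complete growth inhibition.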
# Legend:
# Assay in all cases: DTP human tumour cell line panel, 48 h
# A498 renal = system: A498 renal
# CAKI-1 renal = system: CAKI-1 renal
# MALME-3M melanoma = system: MALME-3M melanoma
# MOLT-4 leukemia = system: MOLT-4 leukemia
# SF-268 CNS = system: SF-268 CNS
# SK-MEL-2 melanoma = system: SK-MEL-2 melanoma
# SK-MEL-28 melanoma = system: SK-MEL-28 melanoma
# SK-MEL-5 melanoma = system: SK-MEL-5 melanoma
# SNB-75 CNS = system: SNB-75 CNS
# U251 CNS = system: U251 CNS
Compound,TGI (A498 renal) [µM],TGI (CAKI-1 renal) [µM],TGI (MALME-3M melanoma) [µM],TGI (MOLT-4 leukemia) [µM],TGI (SF-268 CNS) [µM],TGI (SK-MEL-2 melanoma) [µM],TGI (SK-MEL-28 melanoma) [µM],TGI (SK-MEL-5 melanoma) [µM],TGI (SNB-75 CNS) [µM],TGI (U251 CNS) [µM],GI50 (A498 renal) [µM],GI50 (CAKI-1 renal) [µM],GI50 (MALME-3M melanoma) [µM],GI50 (MOLT-4 leukemia) [µM],GI50 (SF-268 CNS) [µM],GI50 (SK-MEL-2 melanoma) [µM],GI50 (SK-MEL-28 melanoma) [µM],GI50 (SK-MEL-5 melanoma) [nM],GI50 (SNB-75 CNS) [µM],GI50 (U251 CNS) [µM]
Cc1cccc(C(C)C)c1N1C(=O)C(=O)C(c2nc3ccccc3o2)C(=O)C1=O,> 100,> 100,> 100,63.8,> 100,> 100,> 100,> 100,> 100,> 100,–,–,–,–,–,–,–,–,–,–
S=c1[nH]nc(Cc2ccccc2)c(=S)[nH]1,> 81.8,> 100,> 100,> 100,> 21.3,> 76.9,> 100,> 82.2,89.1,> 100,–,–,–,–,–,–,–,–,–,–
Cc1ccc(-c2c3c(nn2-c2ccc(S(N)(=O)=O)cc2)-c2ccccc2C3)cc1,21,32.6,26.5,42.7,44.7,26.6,33.8,5.76,33.8,34.7,6.07,17.7,11.6,10.8,20.3,12.2,17.7,1210,17.5,19
CC(=O)OC1=CC2=CC[C@H]3[C@@H]4CCC(=O)[C@@]4(C)CC(=O)[C@]3(S)[C@@]2(C)CC1,> 100,> 100,57.2,37.4,89.6,> 100,> 100,> 100,> 100,> 100,–,–,–,–,–,–,–,–,–,–
COc1ccc(C(c2ccc(OCCN(C)C)cc2)c2cc3ccccc3c3ccccc23)cc1 (stereo not given),20.9,3.01,3.12,3.42,3.26,2.97,3.11,3.11,2.74,2.92,0.536,1.6,1.55,1.58,1.71,1.54,1.63,1690,1.36,1.57
